Values after ≈ are worked out from the molar mass of the structure shown. Where only a bound is given, the exact number is not on record here.

As a reminder, the IC50 is the point on the concentration scale where inhibition reaches its midpoint.

Assay [1] concerns human nasopharynx cancer (KB cells). As to the kind of experiment: Inhibition of multiplication of human nasopharynx cancer (KB cells), MTT assay. In kind it is cell-based. Particulars: 72 hours. Here is the method:
(§1) The effect (IC50) of the compounds obtained by Examples in inhibiting multiplication of human nasopharynx cancer (KB cells) and human colon adenocarcinoma (colon 205 cells) Each well of a 96-well microtiter plate was inoculated with 0.1 ml of human nasopharynx cancer (KB cells) (1×10^4 /ml) or human colon adenocarcinoma (colon 205 cells) (2×10^4 /ml), which was then subjected to cultivation by allowing to stand at 37° C. for 24 hours in 5% CO2. To the culture was added a 10% MEM solution (manufactured by Nissui Seiyaku or RPMI-1640), and cultivation was continued at 37° C. for 72 hours in 5% CO2. Then, the culture solution was removed with a micro-pipette. […] Incubation was conducted at 37° C for 4 hours, to which was then added 0.1 ml of a 10% SDS (Wako Pure Chemical Industries, Ltd.), and the incubation was continued at 37° C. for 24 hours.
In general terms: Tetrazolium dyes change colour on reduction, which living cells bring about.

Assay [2] deals with human colon adenocarcinoma (colon 205 cells). As to the kind of experiment: Inhibition of multiplication of human colon adenocarcinoma (colon 205 cells), MTT assay. In kind it is cell-based. Particulars: 72 hours. Here is the method:
as §1

As for `CCCCCCCCCCCCCCCCCCOCC(C[S+]([O-])CCOCC[n+]1ccc2ccccc2c1)Oc1ncccn1.[Cl-]` (stereo not drawn) [Ex. 4, N-[2-[2-[3-octadecyloxy-2-(pyrimidin-2-yloxy)propylsulfinyl]ethoxy]ethyl]isoquinolinium chloride], the IC50 in assay [1] was found to be 0.32 µg/mL; in assay [2], 0.63 µg/mL.
On to `CCCCCCCCCCCCCCCCCCOCC(C[S+]([O-])CCOCC[n+]1cccc2ccccc21)Oc1ncccn1` (stereo not drawn) [Ex. 5, N-[2-[2-[3-octadecyloxy-2-(pyrimidin-2-yloxy)propylsulfinyl]ethoxy]quinolinium chloride], for which the IC50 in assay [1] was found to be 0.16 µg/mL; in assay [2], 0.32 µg/mL.
Taken in the same sequence, the figures for `CCCCCCCCCCCCCCCCCCOCC(C[S+]([O-])CCOCC[n+]1ccc(N(C)C)cc1)Oc1ncccn1.[Cl-]` (stereo not drawn) [Ex. 7, 4-dimethylamino-1-[2-[2-[3-octadecyloxy-2-(pyrimidin-2-yloxy)propylsulfinyl]ethoxy]ethyl]pyridinium chloride] were 0.16 µg/mL and 0.63 µg/mL.
Regarding `CCCCCCCCCCCCCCCCCCOCC(CSCCCOCCC[n+]1ccn(CCCCCC(=O)[O-])c1)Oc1ncccn1` (stereo not drawn) [Ex. 13, 6-[3-[3-[3-[3-octadecyloxy-2-(pyrimidin-2-yloxy)propylthio]propoxy]propyl]imidazolio-1-yl]hexanoate], the IC50 in assay [1] was 0.63 µg/mL (≈ 0.876 µM); in assay [2] it was 1.25 µg/mL (≈ 1.74 µM).
As to `CCCCCCCCCCCCCCCCCCOCC(CS(=O)(=O)CCCOCCC[n+]1ccsc1)Oc1ncccn1` (stereo not drawn) [Ex. 15, 3-[3-[3-octadecyloxy-2-(pyrimidin-2-yloxy)propylsulfonyl]propoxy]propylthiazolium chloride], the IC50 in assay [1] and in assay [2] was 1.25 µg/mL in each case.
As for `CCCCCCCCCCCCCCCCCCOCC(CS(=O)(=O)CCCOCCC[n+]1ccccc1)Oc1ncccn1.[Cl-]` (stereo not drawn) [Ex. 16, N-[3-[3-[3-octadecyloxy-2-(pyrimidin-2-yloxy)propylsulfonyl]propoxy]propyl]pyridinium chloride], the IC50 in assay [1] came to 0.16 µg/mL; in assay [2] it was 0.63 µg/mL.
Taken in the same sequence, the figures for `CCCCCCCCCCCCCCCCCCOCC(CS(=O)(=O)CCCOCCC[N+](C)(C)C)Oc1ncccn1.[Cl-]` (stereo not drawn) [Ex. 17, N-[3-[3-[3-octadecyloxy-2-(pyrimidin-2-yloxy)propylsulfonyl]propoxy]propyl]-N,N,N-trimethylammonium chloride] were 0.32 µg/mL and 1.25 µg/mL.
In the case of `CCCCCCCCCCCCCCCCCCOCC(C[S+]([O-])CCCOCCC[n+]1ccsc1)Oc1ncccn1` (stereo not drawn) [Ex. 18, 3-[3-[3-octadecyloxy-2-(pyrimidin-2-yloxy)propylsulfinyl]propoxy]propylthiazolium chloride], the IC50 in assay [1] and in assay [2] was 1.25 µg/mL each time.
Turning to `CCCCCCCCCCCCCCCCCCOCC(CS(=O)(=O)CCOCC[n+]1ccccc1)Oc1ncccn1.[Cl-]` (stereo not drawn) [Ex. 20, N-[2-[2-[3-octadecyloxy-2-(pyrimidin-2-yloxy)propylsulfonyl]ethoxy]ethyl]pyridinium chloride], the IC50 in assay [1] was less than 0.08 µg/mL; in assay [2] it was 0.63 µg/mL.
Consider `CCCCCCCCCCCCCCCCCCOCC(CSCCOCC[N+]1(C)CCCC1)Oc1ncccn1.[Cl-]` (stereo not drawn) [Ex. 22, N-methyl-N-[2-[2-[3-octadecyloxy-2-(pyrimidin-2-yloxy)propylthio]ethoxy]ethyl]pyrrolidinium chloride], for which the IC50 amounted to 0.32 µg/mL in assay [1] and 1.25 µg/mL in assay [2].
Taken in the same sequence, the figures for `CCCCCCCCCCCCCCCCCCOCC(CSCCOCC[N+](C)(C)C)Oc1ncccn1.[Cl-]` (stereo not drawn) [Ex. 23, N-[2-[2-[3-octadecyloxy-2-(pyrimidin-2-yloxy)propylthio]ethoxy]ethyl]-N,N,N-trimethylammonium chloride] were 0.63 µg/mL and 0.63 µg/mL.
As for `CCCCCCCCCCCCCCCCCCOCC(CSCCOCC[n+]1ccn(CCCCCC(=O)OCC)c1)Oc1ncccn1` (stereo not drawn) [Ex. 25, 1-[(5-ethoxycarbonyl)pentyl]-3-[2-[2-[3-octadecyloxy-2-(pyrimidin-2-yloxy)propylthio]ethoxy]ethyl]imidazolium chloride], the values for the IC50 in assay [1] and in assay [2] were 0.32 µg/mL and 2.5 µg/mL, respectively.

Values taken from patent US5103007A, “Lipids” (Takeda Chemical Industries, Ltd., priority 1988, dated 1992).
